Converted amounts (≈) assume the structure as drawn.

Data set [1] concerns Staphylococcus aureus. The experiment in a line: Ratio of MIC for quinolone-resistant Staphylococcus aureus MS5935 to MIC for quinolone-sensitive Staphylococcus aureus. The class given is functional.
The test system of a further data set is Enterococcus faecium. The experiment in a line: Antibacterial activity against VanA-type vancomycin-resistant Enterococcus faecium A2373. The class given is functional. As to conditions: Enterococcus faecium, A2373; read-out: MIC.
In a further data set the test system is Escherichia coli. The experiment in a line: Antibacterial activity against Escherichia coli ATCC 25922. The class given is functional. The conditions noted are these: Escherichia coli, ATCC 25922; read-out: MIC.
The subject of data set [2] is Streptococcus pneumoniae. The experiment in a line: Antibacterial activity against Streptococcus pneumoniae IID554. The class given is functional. The conditions noted are these: Streptococcus pneumoniae, IID554; read-out: MIC.
Data set [3] has as its target T1, Voltage-gated inwardly rectifying potassium channel KCNH2 (Homo sapiens, UniProt Q12809). The experiment in a line: Inhibition of human ERG expressed in CHO cells measured over 5 mins by patch clamp assay.
A further data set has as its system Pseudomonas aeruginosa. The experiment in a line: Antibacterial activity against Pseudomonas aeruginosa PAO1. As to conditions: Pseudomonas aeruginosa, PAO1; read-out: MIC. It is filed as functional.
Another data set has as its system Enterococcus faecalis. The experiment in a line: Antibacterial activity against Enterococcus faecalis ATCC 29212. It is filed as functional. As to conditions: Enterococcus faecalis, ATCC 29212; read-out: MIC.
The subject of another data set is Acinetobacter baumannii. The experiment in a line: Antibacterial activity against Acinetobacter baumannii IID876. The class given is functional. As to conditions: Acinetobacter baumannii, IID876; read-out: MIC.
Data set [4] concerns the target T1, Voltage-gated inwardly rectifying potassium channel KCNH2. The experiment in a line: Displacement of MK499 from human ERG.
The test system of data set [5] is Staphylococcus aureus. The experiment in a line: Antibacterial activity against Staphylococcus aureus Smith. The conditions noted are these: Staphylococcus aureus, Smith; read-out: MIC. It is filed as functional.
A further data set concerns Moraxella catarrhalis. The experiment in a line: Antibacterial activity against Moraxella catarrhalis ATCC 25238. It is filed as functional. As to conditions: Moraxella catarrhalis, ATCC 25238; read-out: MIC.
A further data set has as its system Haemophilus influenzae. The experiment in a line: Antibacterial activity against Haemophilus influenzae ATCC 49247. As to conditions: Haemophilus influenzae, ATCC 49247; read-out: MIC. The class given is functional.
Data set [6] is described as follows: Volume of distribution at steady state in C57BL/6 mouse at 1 mg/kg, iv and 2 mg/kg, po. The class given is ADME, organism-based. The conditions noted are these: in vivo, read-out: Vdss.
Data set [7] has as its system Staphylococcus aureus. The experiment in a line: Antibacterial activity against Staphylococcus aureus Smith infected in iv dosed CD1 mouse administered at 0.5 hrs post infection. It is filed as functional.
The test system of data set [8] is Staphylococcus aureus. The experiment in a line: Antibacterial activity against Staphylococcus aureus Smith infected in po dosed CD1 mouse administered at 0.5 hrs post infection. The class given is functional.
The nature of data set [9]: Half life in C57BL/6 mouse at 1 mg/kg, iv and 2 mg/kg, po. The conditions noted are these: in vivo. The class given is ADME, organism-based.
The nature of data set [10]: Oral bioavailability in C57BL/6 mouse at 2 mg/kg. It is filed as ADME, organism-based. The conditions noted are these: in vivo.
For another data set, the system named is Mus musculus. The experiment in a line: Dose normalized AUC in C57BL/6 mouse at 1 mg/kg, iv and 2 mg/kg, po. The class given is ADME, organism-based. The conditions noted are these: in vivo.
Data set [11] in a line: Plasma clearance in C57BL/6 mouse at 1 mg/kg, iv and 2 mg/kg, po. The class given is ADME, organism-based.
Data set [12] deals with Streptococcus pneumoniae. The experiment in a line: Antibacterial activity against Streptococcus pneumoniae. It is filed as functional.
Data set [13] concerns Staphylococcus aureus. The experiment in a line: Antibacterial activity against Staphylococcus aureus. It is filed as functional.

T1 sequence (Q12809 whole entry): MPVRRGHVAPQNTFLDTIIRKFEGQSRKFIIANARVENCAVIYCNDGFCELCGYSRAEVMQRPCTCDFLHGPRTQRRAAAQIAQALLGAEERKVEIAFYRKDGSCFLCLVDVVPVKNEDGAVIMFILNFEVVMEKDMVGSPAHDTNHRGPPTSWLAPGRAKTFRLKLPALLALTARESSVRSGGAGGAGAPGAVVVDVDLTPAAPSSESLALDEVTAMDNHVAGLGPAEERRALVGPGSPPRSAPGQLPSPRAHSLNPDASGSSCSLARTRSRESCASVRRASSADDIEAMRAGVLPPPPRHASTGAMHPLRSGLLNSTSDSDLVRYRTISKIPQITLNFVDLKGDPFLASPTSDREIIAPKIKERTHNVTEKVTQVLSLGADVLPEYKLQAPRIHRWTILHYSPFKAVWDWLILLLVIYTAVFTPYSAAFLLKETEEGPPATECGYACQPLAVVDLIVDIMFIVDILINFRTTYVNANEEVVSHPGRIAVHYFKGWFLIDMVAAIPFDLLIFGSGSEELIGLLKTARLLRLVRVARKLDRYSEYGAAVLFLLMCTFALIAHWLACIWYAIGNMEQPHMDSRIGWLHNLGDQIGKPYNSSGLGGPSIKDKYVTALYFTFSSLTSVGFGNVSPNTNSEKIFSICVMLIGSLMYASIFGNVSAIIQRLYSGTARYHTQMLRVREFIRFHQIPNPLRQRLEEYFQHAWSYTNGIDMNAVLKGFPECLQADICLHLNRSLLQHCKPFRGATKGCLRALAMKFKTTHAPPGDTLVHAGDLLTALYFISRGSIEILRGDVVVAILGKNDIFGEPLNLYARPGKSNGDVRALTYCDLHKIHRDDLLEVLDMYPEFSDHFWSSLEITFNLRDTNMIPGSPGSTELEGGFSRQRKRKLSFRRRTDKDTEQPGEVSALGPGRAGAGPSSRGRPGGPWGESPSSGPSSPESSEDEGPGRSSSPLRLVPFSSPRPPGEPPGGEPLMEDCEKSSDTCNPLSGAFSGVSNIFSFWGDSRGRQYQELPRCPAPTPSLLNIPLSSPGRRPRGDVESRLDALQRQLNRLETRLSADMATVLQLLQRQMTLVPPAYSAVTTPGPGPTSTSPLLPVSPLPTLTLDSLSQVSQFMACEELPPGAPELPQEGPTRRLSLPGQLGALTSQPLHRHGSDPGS

On to `CN1CCOc2ccc(CNC34CCC(C[C@]5(O)Cn6c(=O)ccc7ncc(F)c5c76)(CC3)OC4)nc21`, for which the Ratio with Staphylococcus aureus [1] is listed as less than 4. The MIC worked out at 32 µg/mL (≈ 63 µM) in the data set with Enterococcus faecium; 32 µg/mL (≈ 63 µM) with Escherichia coli; 8 µg/mL (≈ 15.8 µM) in the data set on Streptococcus pneumoniae [2]; 32 µg/mL (≈ 63 µM) with Pseudomonas aeruginosa; 32 µg/mL (≈ 63 µM) with Enterococcus faecalis; 32 µg/mL (≈ 63 µM) with Acinetobacter baumannii. For the same compound, the MIC in the data set with Staphylococcus aureus [5] worked out at 4 µg/mL (≈ 7.88 µM). Moreover, the IC50 in data set [3] and in [4] was greater than 60 µM in each case.
For the compound `O=C1COc2cc(OC(=O)c3ccccc3)c(CNC34CCC(C[C@]5(O)Cn6c(=O)ccc7ncc(F)c5c76)(CC3)OC4)nc2N1`, the Ratio in the data set with Staphylococcus aureus [1] is less than 4. Besides, the MIC in the data set with Enterococcus faecium, in the data set with Moraxella catarrhalis, in the data set with Escherichia coli, in the data set with Streptococcus pneumoniae [2], with Haemophilus influenzae and in the data set with Pseudomonas aeruginosa was 32 µg/mL (≈ 51 µM) each time. Also, the MIC is 32 µg/mL (≈ 51 µM) in the data set on Enterococcus faecalis, 32 µg/mL (≈ 51 µM) in the data set with Acinetobacter baumannii and 8 µg/mL (≈ 12.7 µM) in the data set on Staphylococcus aureus [5]. The IC50 in [3] stood at 30.5 µM.
In the case of `O=C1COc2cnc(CNC34CCC(C[C@]5(O)Cn6c(=O)ccc7ncc(F)c5c76)(CC3)OC4)nc2N1`, the Ratio with Staphylococcus aureus [1] is given as less than 4. Further, the MIC in the data set on Enterococcus faecium came to 16 µg/mL (≈ 31.5 µM); with Escherichia coli, 8 µg/mL (≈ 15.7 µM); in the data set on Streptococcus pneumoniae [2], 2 µg/mL (≈ 3.93 µM); in the data set on Pseudomonas aeruginosa it was 16 µg/mL (≈ 31.5 µM); in the data set with Enterococcus faecalis it was 4 µg/mL (≈ 7.87 µM); in the data set on Acinetobacter baumannii it was 32 µg/mL (≈ 62.9 µM). Moreover, the MIC in the data set on Staphylococcus aureus [5] stood at 0.5 µg/mL (≈ 0.983 µM). Further, the IC50 in [3] came out at 30 µM.
`O=C1COc2cc(O)c(CNC34CCC(C[C@]5(O)Cn6c(=O)ccc7ncc(F)c5c76)(CC3)OC4)nc2N1`: the Ratio in the data set with Staphylococcus aureus [1] was less than 4. The MIC in the data set on Enterococcus faecium was found to be 16 µg/mL (≈ 30.6 µM); in the data set with Moraxella catarrhalis, 1 µg/mL (≈ 1.91 µM); in the data set on Escherichia coli, 16 µg/mL (≈ 30.6 µM); in the data set with Streptococcus pneumoniae [2], 2 µg/mL (≈ 3.82 µM); in the data set with Haemophilus influenzae, 4 µg/mL (≈ 7.64 µM); in the data set on Pseudomonas aeruginosa, 16 µg/mL (≈ 30.6 µM). Moreover, the MIC in the data set on Enterococcus faecalis stood at 8 µg/mL (≈ 15.3 µM); in the data set with Acinetobacter baumannii, 32 µg/mL (≈ 61.1 µM); in the data set with Staphylococcus aureus [5], 2 µg/mL (≈ 3.82 µM).
Turning to `O=c1ccc2ncc(F)c3c2n1C[C@@]3(O)CC12CCC(NCc3cc4c(cn3)S(=O)(=O)CCO4)(CC1)CO2`, in the data set with Staphylococcus aureus [1], the Ratio is on record as less than 4. Further, the MIC in the data set on Enterococcus faecium, in the data set with Moraxella catarrhalis, with Escherichia coli, in the data set with Streptococcus pneumoniae [2], in the data set with Haemophilus influenzae and with Pseudomonas aeruginosa was 32 µg/mL (≈ 59 µM) in each case. For the same compound, the MIC is 32 µg/mL (≈ 59 µM) with Enterococcus faecalis, 32 µg/mL (≈ 59 µM) in the data set on Acinetobacter baumannii and 8 µg/mL (≈ 14.7 µM) with Staphylococcus aureus [5]. Besides, the IC50 in [3] and in data set [4] was greater than 60 µM in each case.
Turning to `O=c1ccc2ncc(F)c3c2n1C[C@@]3(O)CC12CCC(NCc3cc4c(cn3)OCCS4(=O)=O)(CC1)CO2`, the Ratio in the data set on Staphylococcus aureus [1] is less than 4. Moreover, the MIC with Enterococcus faecium turned out to be 32 µg/mL (≈ 59 µM); with Moraxella catarrhalis it was 32 µg/mL (≈ 59 µM); in the data set on Escherichia coli, 32 µg/mL (≈ 59 µM); in the data set with Streptococcus pneumoniae [2], 4 µg/mL (≈ 7.37 µM); in the data set with Haemophilus influenzae it was 32 µg/mL (≈ 59 µM); with Pseudomonas aeruginosa, 32 µg/mL (≈ 59 µM). Also, the MIC was found to be 32 µg/mL (≈ 59 µM) in the data set on Enterococcus faecalis, 32 µg/mL (≈ 59 µM) with Acinetobacter baumannii and 8 µg/mL (≈ 14.7 µM) in the data set on Staphylococcus aureus [5]. The IC50 in data set [3] and in data set [4] was greater than 60 µM each time.
As to `O=C1COc2cc(Cl)c(CNC34CCC(C[C@]5(O)Cn6c(=O)ccc7ncc(F)c5c76)(CC3)OC4)nc2N1`, the Ratio with Staphylococcus aureus [1] is reported as less than 4. Further, the Vd in data set [6] is 7 L/kg. Further, the ED90 in the data set on Staphylococcus aureus [7] came out at 24 mg/kg; in the data set with Staphylococcus aureus [8], 29 mg/kg. The MIC in the data set on Enterococcus faecium is 16 µg/mL (≈ 29.5 µM); in the data set with Escherichia coli, 8 µg/mL (≈ 14.8 µM); with Streptococcus pneumoniae [2], 2 µg/mL (≈ 3.69 µM); in the data set on Pseudomonas aeruginosa, 16 µg/mL (≈ 29.5 µM); with Enterococcus faecalis, 8 µg/mL (≈ 14.8 µM); with Acinetobacter baumannii, 2 µg/mL (≈ 3.69 µM). Besides, in the data set on Staphylococcus aureus [5], the MIC turned out to be 0.25 µg/mL (≈ 0.461 µM). Besides, the half-life in data set [9] is 3.5 h. Also, the half-inhibitory concentration (IC50) in [3] is 126 µM; in data set [4], 27.7 µM. For the same compound, the bioavailability in [10] worked out at 51%. This compound also came in with an AUC/dose in the data set on Mus musculus of 0.7 µM·h/mg/kg. The same compound came in with a clearance in [11] of 38 mL/min/kg.
For `O=c1ccc2ncc(=O)n3c2n1C[C@H]3CN1CCC(NCc2cc3c(cn2)OCCC3)CC1` [GEPOTIDACIN], the MIC90 was found to be 0.25 µg/mL (≈ 0.557 µM) against Streptococcus pneumoniae [12] and 0.5 µg/mL (≈ 1.11 µM) in the data set on Staphylococcus aureus [13].

The record behind these values is ChEMBL document CHEMBL3425423, “Hydroxy tricyclic 1,5-naphthyridinone oxabicyclooctane-linked novel bacterial topoisomerase inhibitors as broad-spectrum antibacterial agents-SAR of RHS moiety (Part-3)” (Bioorg Med Chem Lett, 2015).
